From patent US4154727A, “Dipeptide derivatives and their production” (Shionogi & Co., Ltd., priority 1974, dated 1979)

Assays:
DS male mice [1] = experiment: Taming activity (inhibition of fighting responses); type: in vivo; conditions: given 60 minutes prior; inhibition of electroshock-induced fighting responses, 5 pairs of mice
Protocol: This test was measured on DS male mice. […] These pairs of mice were selected in the morning and used for drug test in the afternoon. The test compound was administered to both mice of the pairs 60 minutes prior to the experiment. Results were obtained as the mean percentage of inhibition of fighting responses in a group of 5 pairs and shown by ED50 [Tedeschi, et al.: J. Pharmacol Exp. Thev., 125, 28-34 (1959)].

DS male mice [2] = experiment: Rotarod performance activity; type: in vivo; conditions: fall from rod (5 rotations per minute) within less than 2 minutes; 10 mice per dose
Protocol: (3) Rotarod performance activity
This test was measured on DS male mice. The mouse was put on a scraped rod of wood, 3 cm in diameter, turning at the rate of five rotations per minute. The mice that could remain on the rod for three or more minutes in successive trials were selected and placed in a group of 10 mice for each dose. If the mouse fell down from the rod within less than 2 minutes, the test compound was considered to be effective. Results were shown by ED50 [Dunham, et al.: J. Am. Pharm. Assoc., 46, 208 (1957)].

| SMILES | Taming activity ED50 (DS male mice [1]) | Rotarod performance ED50 (DS male mice [2]) |
| --- | --- | --- |
| CN(C(=O)CNC(=O)CN)c1ccc(Cl)cc1C(=O)c1ccccc1Cl.O [Compound No. 2, 2-o-chlorobenzoyl-4-chloro-N-methyl-N^α -glycyl-glycinanilide hydrate] | 3.0 mg/kg | – |
| CN(C(=O)CNC(=O)CN)c1ccc(Cl)cc1C(=O)c1ccccc1F.Cl [Compound No. 3, 2-o-fluorobenzoyl-4-chloro-N-methyl-N^α -glycyl-glycinanilide hydrochloride] | 1.6 mg/kg | 17.0 mg/kg |
